Publication PMC6423038, “Deferiprone: Pan-selective Histone Lysine Demethylase Inhibition Activity and Structure Activity Relationship Study” (Scientific Reports, 2019)

Tests used:
[1] = test system: MCF-7; test: Cell viability assay (MTS), antiproliferative activity; format: cell-based; details: Homo sapiens, MCF7, 72 h
Experimental: (§1) To preliminarily profile the bioactivity of these compounds, we adopted a streamlined approach which involved screening against KDM6A at two concentrations and evaluating antiproliferative activity against three representative cell lines – MCF-7 (ER(+) BCa), MDA-MB-231 (TNBC BCa) and Vero (a non-transformed cell line as control).
(§2) The In vitro proliferation assay was performed as reported previously[15],[16]. Detailed description of the protocol used is included in the Supplementary Information.
(§3) Cell Viability Assay. All cell lines were purchased form ATCC (Manassas, VA), and they were routinely cultured in different media recommended by the supplier. MCF-7 cells were cultured in non-phenol red DMEM (Corning, Manassas, VA) fortified with 10% charcoal treated fetal bovine serum (FBS; Atlanta Biologicals, GA) and 0.2 mM glutamine (Corning, Manassas, VA), whereas MDA-MB-231, DU-145, and Vero were cultured in DMEM with 10% FBS. […] After 24 h incubation in 37 °C under 5% CO2, cells were treated with serially diluted ligands with final DMSO concentration of 1% and incubated for additional 72 h. MTS (CellTiter 96 Aqueous One Solution Cell Proliferation Assays, Promega, Madison, WI) was added to each well 2.5 h prior to recording the absorbance at 490 nm.

[2] = test system: MDA-MB-231; test: as above; format: cell-based; details: Homo sapiens, 72 h
Experimental: as §1, §2, §3

[3] = test system: VERO; test: as above; format: cell-based; details: Chlorocebus sabaeus, 72 h
Experimental: as §1, §2, §3

[4] = test system: Oct4 GFP expression in CiA:Oct4 embryonic stem cells; test: CiA:Oct4 reporter dose response without HP1 recruitment (no CIP-rapamycin), flow cytometry; format: cell-based, mouse; details: 48 h without HP1 recruitment; for decrease in the percentage of GFP(+) cells: at 2.5 µM
Excerpt: Embryonic stem cells are sensitive to environmental stimuli which may trigger cell differentiation. During mammalian stem cell differentiation or exposure to toxic compounds, Oct4 is known to be repressed as cells lose reinforcement of the pluripotency transcriptional activation network[35],[36]. Therefore, the CiA:Oct4 reporter without CIP-recruitment of HP1 functions is a valid system to determine how much cell differentiation or toxicity is occurring by measuring the GFP expression levels. To elucidate the effect of DFP-based KDM inhibitors on Oct4 GFP expression in the absence of HP1 recruitment, we performed dose response studies without addition of CIP-rapamycin (Fig. 11A).
(§4) Day 0, CiA:Oct4 N118/163 cells were grown in ES media and seeded at a density of 10,000 cells per well in 100 μL media (100,000 cells mL^−1) on gelatin coated 96 well plates. Day 1, culture media was aspirated and replaced with 100 µL ES media containing +/− 6 nM rapamycin. 10 µM, 5 µM, 2.5 µM, 1 µM, 500 nM, and 250 nM concentrations of compound or DMSO were added using a TTP Labtech Mosquito HTS liquid handler. Days 2, fresh ES media +/− rapamycin and compound were added as in Day 1. Day 3, cells were washed with PBS and trypsinized using 0.25% trypsin-EDTA. Trypsin was quenched with serum. Cells were resuspended by pipetting in preparation for flow cytometry analysis.
(§5) Flow cytometry data was acquired using the Intellicyt iQue Screener and analyzed with FlowJo software.
(§6) HP1-Recruitment Assay Dose Curve. Day 0, CiA:Oct4 N118/163 cells were grown in ES media and seeded at a density of 10,000 cells per well in 100 µL media (100,000 cells mL^-1) on gelatin coated 96 well plates. Day 1, culture media was aspirated and replaced with 100 µL ES media containing +/- 6 nM rapamycin. 10 µM, 5 µM, 2.5 µM, 1 µM, 500 nM, and 250 nM concentrations of compound or DMSO were added using a TTP Labtech Mosquito HTS liquid handler. Days 2, fresh ES media +/- rapamycin and compound were added as in Day 1. Day 3, cells were washed with PBS and trypsinized using 0.25% trypsin-EDTA. Trypsin was quenched with serum. Cells were resuspended by pipetting in preparation for flow cytometry analysis.
Flow Cytometry and Analysis. Flow cytometry data was acquired using the Intellicyt iQue Screener and analyzed with FlowJo software. Cell populations were gated based on forward and side scatter height. Single cell populations were gated using forward scatter area by forward scatter height. Autofluorescent cells were excluded and the remaining cells were gated into GFP (-) and GFP (+) populations based on DMSO control samples.

[5] = biological target: T1, KDM6A (UTX) (Homo sapiens, UniProt O15550); test: KDM cell-free assay (AlphaScreen, BPS Bioscience); format: biochemical; details: for IC50: Fig. 9A, read-out: IC50 (KDM6A inhibition dose response curve)
T1 construct: purchased BPS Bioscience

[6] = test system: HP1-mediated heterochromatin gene repression in CiA:Oct4 embryonic stem cells; test: HP1-recruitment assay dose curve (CiA:Oct4, with CIP-rapamycin), flow cytometry; format: cell-based, mouse; details: 48 h with CIP-rapamycin recruitment of HP1; for concentration reaching maximum inhibition of heterochromatin formation / gene repression: doses 250 nM–10 µM
Excerpt: To elucidate the effect of DFP-based KDM inhibitors on chromatin dynamics, we profiled them in an intracellular assay which measures heterochromatin formation speed. The chromatin in vivo assay (CiA) leverages chemical induced proximity (CIP) to recruit heterochromatin protein 1 (HP1) to a modified Oct4 locus. This reporter system is composed of tandem arrays of Gal4 and zinc finger DNA binding domains in the promoter of one allele of Oct4, where the gene was replaced by a nuclear eGFP reporter. Protein fusions of Gal4-FKBP and FRB-HP1 allow for direct chemical recruitment of HP1 to the CiA:Oct4 reporter locus upon addition of the chemical inducer of proximity (CIP)-rapamycin. After CIP-rapamycin addition, HP1 is recruited to the reporter locus and brings histone methyltransferase enzymes to the chromatin reporter resulting in the repressive H3K9me3 mark being deposited (Fig. 10A). H3K9me3 deposition is the signature mark of heterochromatin and is coupled with gene silencing and loss of GFP expression (Fig. 10B)[33]. Others have shown that H3K4me3 marked nucleosomes impede H3K9 methyltransferase activity. Thus, we postulate that the active H3K4me3 mark must be removed by KDM enzymes as part of the transformation from euchromatin to heterochromatin. Inhibition of KDMs, specifically those targeting H3K4me3, would result in a decrease in H3K9me3 accumulation, which would be measured in our assay as an increase in GFP positive cells.
To determine the effect of DFP-based KDM inhibitors on HP1-mediated gene repression, we treated CiA:Oct4 embryonic stem (ES) cells with doses of representative compounds ranging from 10 µM–250 nM for 48 h with CIP-rapamycin recruitment of HP1 (Fig. 10C). […] The percentage of GFP(+) cells was determined by flow cytometry as indicated in representative histograms (Supplemental Fig. S8).
as §4, §5
The CiA:Oct4 recruitment system in mouse embryonic stem cells contains Gal4 and Zinc finger DNA binding arrays and a downstream nuclear eGFP gene in place of a single Oct4 allele as previously described.^30 The CiA:Oct4 N118/N163 cell line containing viral integrations of N118 and N163 plasmids (N118- nLV EF-1α-Gal-FKBPx1-HA-PGK-Blast, N163- nLV EF-1α-HP1α (CS)-Frbx2(Frb+FrbWobb)-V5-PGK-Puro) was used for inhibition of HP1-mediated heterochromatin studies. All plasmids are freely available on addgene.
as §6
Flow Cytometry and Analysis.

[7] = test system: T47D cells; test: Viability of T47D cells at three concentrations; format: cell-based, human; details: Fig. S9
Experimental: To determine the antitumor potential of the DFP-based KDM inhibitors, we investigated the efficacy of a representative example, 2j, in two murine xenograft models of BCa. The xenografts were established using two human BCa cell lines – T47D (ER(+)) and MDA-MB-231 (ER(−)). […] Because our in vitro study was conducted using MCF-7 as a model of ER(+) cell, we first tested the effect of 2j on the viability of T47D cells at three concentrations. […] The effect of 2j on T47D viability mirrored that of its effect on MCF-7, confirming preferential cytotoxicity of the DFP-based agents […]. Once we established that T47D cells are sensitive to 2j, xenografts of T47D and MDA-MB-231 were established in female athymic nude mice (8-week old) by injection of cells (1 × 10^7) into the mammary fat pad as described previously[37],[38]. After the tumor volume reached ~250 mm^3, mice were treated with 2j (25 mg/kg body weight) for 8 weeks. […] Relative to control, 2j caused approx. 81% (4426 vs 884 mm^3) and 70% (5116 vs 1536 mm^3) reduction in the growth of T47D and MDA-MBMB-231 tumors, respectively.

[8] = test system: MDA-MB-231 tumors; test: Mouse xenograft assay, MDA-MB-231 (ER(−)); format: in vivo; details: MDA-MB-231 xenograft
[9] = Table 5, values calculated by linear regression

T1 sequence (O15550 whole entry): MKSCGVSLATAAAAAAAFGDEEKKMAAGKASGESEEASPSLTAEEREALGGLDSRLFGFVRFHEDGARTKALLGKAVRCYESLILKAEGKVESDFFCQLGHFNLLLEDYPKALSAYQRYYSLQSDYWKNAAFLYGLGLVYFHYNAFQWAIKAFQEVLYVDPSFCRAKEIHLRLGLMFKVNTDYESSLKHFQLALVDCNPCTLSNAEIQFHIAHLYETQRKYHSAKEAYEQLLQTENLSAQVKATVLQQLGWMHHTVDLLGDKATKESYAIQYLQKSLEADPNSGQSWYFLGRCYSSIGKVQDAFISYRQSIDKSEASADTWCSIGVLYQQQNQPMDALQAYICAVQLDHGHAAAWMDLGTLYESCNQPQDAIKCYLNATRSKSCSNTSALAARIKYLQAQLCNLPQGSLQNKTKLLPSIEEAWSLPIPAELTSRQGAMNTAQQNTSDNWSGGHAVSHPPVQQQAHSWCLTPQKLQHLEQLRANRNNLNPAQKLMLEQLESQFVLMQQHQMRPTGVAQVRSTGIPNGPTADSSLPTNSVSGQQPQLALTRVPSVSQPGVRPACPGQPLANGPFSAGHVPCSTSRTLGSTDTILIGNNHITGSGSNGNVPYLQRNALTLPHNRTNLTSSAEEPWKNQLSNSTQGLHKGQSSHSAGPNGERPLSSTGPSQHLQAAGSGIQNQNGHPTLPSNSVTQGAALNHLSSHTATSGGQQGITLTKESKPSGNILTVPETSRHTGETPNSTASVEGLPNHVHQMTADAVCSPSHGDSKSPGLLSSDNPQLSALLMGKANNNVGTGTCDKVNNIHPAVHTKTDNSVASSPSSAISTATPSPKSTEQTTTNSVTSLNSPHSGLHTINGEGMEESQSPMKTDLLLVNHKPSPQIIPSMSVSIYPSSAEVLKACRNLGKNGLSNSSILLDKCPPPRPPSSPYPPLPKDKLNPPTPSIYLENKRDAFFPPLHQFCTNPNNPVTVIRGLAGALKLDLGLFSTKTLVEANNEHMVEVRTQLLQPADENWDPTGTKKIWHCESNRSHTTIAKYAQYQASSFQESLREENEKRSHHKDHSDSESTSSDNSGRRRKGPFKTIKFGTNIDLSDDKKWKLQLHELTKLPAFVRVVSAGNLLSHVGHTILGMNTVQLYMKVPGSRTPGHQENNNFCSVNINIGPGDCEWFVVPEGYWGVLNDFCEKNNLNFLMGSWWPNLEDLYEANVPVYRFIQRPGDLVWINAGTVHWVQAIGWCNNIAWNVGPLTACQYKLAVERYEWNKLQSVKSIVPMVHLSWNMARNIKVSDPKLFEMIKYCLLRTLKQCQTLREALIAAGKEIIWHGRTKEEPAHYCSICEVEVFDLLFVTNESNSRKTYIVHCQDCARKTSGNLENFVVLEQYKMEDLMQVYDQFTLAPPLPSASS

Row | Compound | IC50 ([1]; Table 5) [µM] | IC50 ([2]; Table 5) [µM] | IC50 ([3]; Table 5) [µM] | decrease in the percentage of GFP(+) cells [4] | inhibition at 1 µM ([5]; Table 2) [%] | inhibition at 10 µM ([5]; Table 2) [%] | concentration reaching maximum inhibition of heterochromatin formation / gene repression [6] [µM] | growth of T47D cells [7] | IC50 [1, 9] [µM] | IC50 [5] [µM] | reduction in the growth of tumors relative to control ([8]; athymic nude mice, 25 mg/kg body weight for 8 weeks) [%] | tumor volume ([8]; 25 mg/kg for 8 weeks, control 5116 mm^3) [mm^3] | increase in the number of GFP positive cells [6] [%] | IC50 ([1]; Table 6, values calculated by linear regression) [µM] | IC50 ([2]; Table 6) [µM] | IC50 ([3]; Table 6) [µM] | inhibition at 1 µM ([5]; Table 3) [%] | inhibition at 10 µM ([5]; Table 3) [%] | decrease in percentage GFP(+) cells ([4]; only at the 10 µM dose)
1 | COc1ccc2cc(-c3cn(CCCCCCn4ccc(=O)c(O)c4C)nn3)ccc2c1 [2w] | > 50 | 1.2 | 3.9 | ~ 30% | 16 | 57 | 1 |  |  |  |  |  |  |  |  |  |  |  | 
2 | COc1cccc(-c2cn(CCCCCn3ccc(=O)c(O)c3C)nn2)c1 [2j] |  | 10.6 | > 50 |  | 8 | 100 |  | dose-dependent reduction | 34.1 | 3.2 | ~70 | 1536 | 20 |  |  |  |  |  | 
3 | Cc1c(O)c(=O)ccn1CCCCCCn1cc(-c2ccc(-c3ccccc3)cc2)nn1 [2v] | > 50 | 2.5 | 4.9 | ~ 30% | 12 | 49 | 1 |  |  |  |  |  |  |  |  |  |  |  | 
4 | Cc1c(O)c(=O)ccn1C1CCC(CC2CCC(n3ccc(=O)c(O)c3C)CC2)CC1 (stereo not drawn) [3g] |  |  |  | ~ 30% |  |  | 2.5 |  |  | 1.7 |  |  |  | 31.1 | 3.5 | > 50 | 9 | 100 | 
5 | Cc1c(O)c(=O)ccn1CCCCCn1cc(-c2ccc(-c3ccncc3)cc2)nn1 [2t] |  | 3.6 | 29.2 |  | 8 | 99 | 10 |  | 37.6 |  |  |  |  |  |  |  |  |  | ~ 20%
